Laboratory results reported in the supplement of paper PMC10307832.

How the values were obtained:
Assay in all cases: relative viability (nuclei count vs DMSO), 5 days (fraction); higher = more cells survive
[1] = tested on: NCI-H520
In short: (§1)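 Lung cancer cell lines in 1536-well plates got either a single drug or a fixed anchor-drug dose together with five library-drug doses (not always all listed) in √10 steps, by pin tool, on the day after seeding. Nuclei were counted after 5 days, and relative viability is the treated-to-vehicle ratio of nuclei counts. Values are medians of duplicate plates.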

[2] = tested on: NCI-H1944
In short: as §1

[3] = tested on: NCI-H1651
In short: as §1

[4] = tested on: NCI-H2087
In short: as §1

[5] = tested on: HCC-15
In short: as §1

[6] = tested on: NCI-H1975
In short: as §1

[7] = tested on: HCC-827
In short: as §1

[8] = tested on: NCI-H727
In short: as §1

[9] = tested on: NCI-H661
In short: as §1

[10] = tested on: NCI-H647
In short: as §1

[11] = tested on: NCI-H1792
In short: as §1

[12] = tested on: COR-L 105
In short: as §1

[13] = tested on: NCI-H522
In short: as §1

[14] = tested on: NCI-H650
In short: as §1

[15] = tested on: COR-L23
In short: as §1

[16] = tested on: NCI-H1755
In short: as §1

[17] = tested on: NCI-H358
In short: as §1

[18] = tested on: H3255
In short: as §1

[19] = tested on: EPLC-272H
In short: as §1

[20] = tested on: NCI-H1437
In short: as §1

[21] = tested on: NCI-H1650
In short: as §1

[22] = tested on: LCLC-103H
In short: as §1

## COCC1(CO)C(=O)C2CCN1CC2 (configuration not stated) [PRIMA-1MET] + CC(=O)c1c(C)c2cnc(Nc3ccc(N4CCNCC4)cn3)nc2n(C2CCCC2)c1=O [Palbociclib] (partner 0.5 µM)
[1]; first compound 0.2 µM
  relative viability: 0.249
[1]; first compound 2 µM
  relative viability: 0.202
[1]; first compound 6.325 µM
  relative viability: 0.216
[1]; first compound 20 µM
  relative viability: 0.142
[2]; first compound 0.2 µM
  relative viability: 0.357
[2]; first compound 0.6325 µM
  relative viability: 0.285
[2]; first compound 2 µM
  relative viability: 0.288
[2]; first compound 6.325 µM
  relative viability: 0.312
[2]; first compound 20 µM
  relative viability: 0.295
[3]; first compound 0.2 µM
  relative viability: 0.602
[3]; first compound 0.6325 µM
  relative viability: 0.389
[3]; first compound 2 µM
  relative viability: 0.473
[3]; first compound 6.325 µM
  relative viability: 0.569
[3]; first compound 20 µM
  relative viability: 0.526
[4]; first compound 0.6325 µM
  relative viability: 0.183
[4]; first compound 2 µM
  relative viability: 0.22
[4]; first compound 6.325 µM
  relative viability: 0.203
[4]; first compound 20 µM
  relative viability: 0.13
[5]; first compound 0.2 µM
  relative viability: 0.677
[5]; first compound 0.6325 µM
  relative viability: 0.407
[5]; first compound 2 µM
  relative viability: 0.687
[5]; first compound 6.325 µM
  relative viability: 0.735
[5]; first compound 20 µM
  relative viability: 0.652
[6]; first compound 0.2 µM
  relative viability: 0.513
[6]; first compound 0.6325 µM
  relative viability: 0.483
[6]; first compound 2 µM
  relative viability: 0.409
[6]; first compound 6.325 µM
  relative viability: 0.693
[6]; first compound 20 µM
  relative viability: 0.582
[7]; first compound 0.2 µM
  relative viability: 0.573
[7]; first compound 0.6325 µM
  relative viability: 0.462
[7]; first compound 2 µM
  relative viability: 0.403
[7]; first compound 6.325 µM
  relative viability: 0.506
[7]; first compound 20 µM
  relative viability: 0.615
[8]; first compound 0.2 µM
  relative viability: 0.629
[8]; first compound 0.6325 µM
  relative viability: 0.584
[8]; first compound 6.325 µM
  relative viability: 0.672
[8]; first compound 20 µM
  relative viability: 0.379
[9]; first compound 0.2 µM
  relative viability: 0.418
[9]; first compound 0.6325 µM
  relative viability: 0.391
[9]; first compound 2 µM
  relative viability: 0.414
[9]; first compound 6.325 µM
  relative viability: 0.423
[9]; first compound 20 µM
  relative viability: 0.446
[10]; first compound 0.2 µM
  relative viability: 0.449
[10]; first compound 0.6325 µM
  relative viability: 0.387
[10]; first compound 2 µM
  relative viability: 0.276
[10]; first compound 6.325 µM
  relative viability: 0.481
[10]; first compound 20 µM
  relative viability: 0.42
[11]; first compound 0.2 µM
  relative viability: 0.633
[11]; first compound 0.6325 µM
  relative viability: 0.596
[11]; first compound 2 µM
  relative viability: 0.622
[11]; first compound 6.325 µM
  relative viability: 0.7
[11]; first compound 20 µM
  relative viability: 0.638
[12]; first compound 0.2 µM
  relative viability: 0.41
[12]; first compound 0.6325 µM
  relative viability: 0.363
[12]; first compound 2 µM
  relative viability: 0.385
[12]; first compound 6.325 µM
  relative viability: 0.41
[12]; first compound 20 µM
  relative viability: 0.16
[13]; first compound 0.2 µM
  relative viability: 1.05
[13]; first compound 0.6325 µM
  relative viability: 0.94
[13]; first compound 2 µM
  relative viability: 0.862
[13]; first compound 6.325 µM
  relative viability: 0.774
[13]; first compound 20 µM
  relative viability: 0.25
[14]; first compound 0.2 µM
  relative viability: 0.317
[14]; first compound 0.6325 µM
  relative viability: 0.289
[14]; first compound 2 µM
  relative viability: 0.367
[14]; first compound 6.325 µM
  relative viability: 0.338
[14]; first compound 20 µM
  relative viability: 0.0905
[15]; first compound 0.2 µM
  relative viability: 0.291
[15]; first compound 0.6325 µM
  relative viability: 0.191
[15]; first compound 2 µM
  relative viability: 0.251
[15]; first compound 6.325 µM
  relative viability: 0.353
[15]; first compound 20 µM
  relative viability: 0.0222
[16]; first compound 0.2 µM
  relative viability: 0.479
[16]; first compound 0.6325 µM
  relative viability: 0.397
[16]; first compound 2 µM
  relative viability: 0.43
[16]; first compound 6.325 µM
  relative viability: 0.482
[16]; first compound 20 µM
  relative viability: 0.459
[17]; first compound 0.2 µM
  relative viability: 0.148
[17]; first compound 0.6325 µM
  relative viability: 0.154
[17]; first compound 2 µM
  relative viability: 0.115
[17]; first compound 6.325 µM
  relative viability: 0.137
[17]; first compound 20 µM
  relative viability: 0.112
[18]; first compound 0.2 µM
  relative viability: 0.319
[18]; first compound 0.6325 µM
  relative viability: 0.293
[18]; first compound 2 µM
  relative viability: 0.312
[18]; first compound 6.325 µM
  relative viability: 0.294
[18]; first compound 20 µM
  relative viability: 0.33
[19]; first compound 0.2 µM
  relative viability: 0.312
[19]; first compound 0.6325 µM
  relative viability: 0.276
[19]; first compound 2 µM
  relative viability: 0.329
[19]; first compound 6.325 µM
  relative viability: 0.336
[19]; first compound 20 µM
  relative viability: 0.289
[20]; first compound 0.2 µM
  relative viability: 0.322
[20]; first compound 0.6325 µM
  relative viability: 0.313
[20]; first compound 2 µM
  relative viability: 0.306
[20]; first compound 6.325 µM
  relative viability: 0.324
[20]; first compound 20 µM
  relative viability: 0.299
[21]; first compound 0.2 µM
  relative viability: 0.322
[21]; first compound 0.6325 µM
  relative viability: 0.331
[21]; first compound 2 µM
  relative viability: 0.317
[21]; first compound 6.325 µM
  relative viability: 0.315
[21]; first compound 20 µM
  relative viability: 0.0802
[22]; first compound 0.2 µM
  relative viability: 0.488
[22]; first compound 0.6325 µM
  relative viability: 0.376
[22]; first compound 2 µM
  relative viability: 0.466
[22]; first compound 6.325 µM
  relative viability: 0.484
[22]; first compound 20 µM
  relative viability: 0.425
